Type in all cases: cell-based
Assay [1] relates to Candida albicans ATCC 10231. Nature of the assay: MIC / synergy (FIC index) microplate growth test, optical density at 620 nm, Candida albicans. The source says: (§1) FIC Index=(MICa with B/MICa)+(MICb with A/MICb)
(§2) with: • MICa with B: minimum concentration of product A in the combination A+B which makes it possible to obtain an inhibitory effect • MICb with A: minimum concentration of product B in the combination A+B which makes it possible to obtain the inhibitory effect. • MICa: minimum inhibitory concentration of product A alone. • MICb: minimum inhibitory concentration of product B alone.
(§3) As regards the combinations tested, MICa with b and MICb with a are the respective concentrations of A and of B in the combinations which make it possible to obtain a microbial growth percentage of less than or equal to 25%.
(§4) When the FIC index value is less than or equal to 1, it is considered that the combination of test compounds has a synergistic effect.
The microbial strain Candida albicans ATCC 10231 and a double-concentration Sabouraud broth liquid culture medium were used.
(§5) A 96-well microplate and an […] of 32.5° C. are used.
(§6) The incubation time of the microplate is: • from 24 hours to 48 hours aerobically for Aspergillus niger; • from 18 to 24 hours aerobically for Candida albicans and Pseudomonas aeruginosa.
(§7) A 10% (weight/volume) stock solution was prepared by mixing 1 g of compound in 9 ml of aqueous 1% agar solution. Successive dilutions were made with the 1% agar solution. • Tests of compounds A and B alone
(§8) 50 μL of each of the daughter solutions obtained containing compound A or B are added to the microplate wells. 100 μL of Sabouraud liquid nutrient broth seeded with the strain Aspergillus niger and 50 μL of aqueous 1% agar solution are also added thereto. • Tests of compounds A and B as a mixture
(§9) 50 μL of each of the daughter solutions obtained containing compound A and 50 μL of each of the daughter solutions obtained containing compound B are added to the microplate wells. 100 μL of Sabouraud liquid nutrient broth seeded at double concentration with the strain Aspergillus niger are also added thereto.
(§10) A positive microbial growth control was also prepared. The positive microbial growth control corresponds to a mixture of 100 μL of aqueous 1% agar solution with 100 μL of Sabouraud liquid nutrient broth seeded at double concentration with the strain Aspergillus niger in the absence of compounds A and B.
(§11) An absorbance control was performed in parallel on compounds A and B alone. This control corresponds to 100 μL of double concentration sterile Sabouraud liquid nutrient broth+100 μL of double concentration compound A or B.
(§12) The test as described above (tests, absorbance control and growth control) was performed again to test the combination A+B on the strains Candida albicans and Pseudomonas aeruginosa.

In assay [2] the test system is Aspergillus niger ATCC 6275. Nature of the assay: MIC / synergy (FIC index) microplate growth test, optical density at 620 nm, Aspergillus niger.
Text: as §1, §2, §3, §4
The microbial strain Aspergillus niger ATCC 6275, and a double-concentration Sabouraud broth liquid culture medium supplemented with polyoxyethylenated (20 OE) sorbitan monopalmitate (Tween 40 from Croda) and Phytagel© BioReagent were used.
as §5, §6, §7, §8, §9, §10, §11
In the two cases (test and control), the inoculum represents the concentration of the strain Aspergillus niger present in the final volume of the wells (200 μL) and is between 2 and 6×10^5 cfu/ml of Aspergillus niger.

Assay [3] deals with Pseudomonas aeruginosa ATCC 9027. Nature of the assay: MIC / synergy (FIC index) microplate growth test, optical density at 620 nm, Pseudomonas aeruginosa.
Text: as §1, §2, §3, §4
The microbial strain Pseudomonas aeruginosa ATCC 9027 and a double-concentration nutritive broth liquid culture medium were used.
as §5, §6, §7, §8, §9, §10, §11, §12

The mark [4] stands for this setting: weight %, first concentration giving growth <= 25%.

For `CCOc1cc(CCC(C)=O)ccc1O` [A, 4-(3-ethoxy-4-hydroxyphenyl)butan-2-one], the microbial growth percentage in assay [1] (A 0.025 weight % alone) stood at 73%; in assay [1] (A 0.05 weight % alone), 73%; in assay [1] (A 0.1 weight % alone) it was 49%; in assay [1] (A 0.2 weight % alone), 9%; in assay [2] (Example 1, A 0.025 weight % alone), 150%; in assay [2] (Example 1, A 0.05 weight % alone), 113%. In addition, the microbial growth percentage in assay [2] (Example 1, A 0.1 weight % alone) came to 112%; in assay [2] (Example 1, A 0.2 weight % alone), 75%; in assay [2] (Example 1, A 0.4 weight % alone), 5%; in assay [2] (Example 2, A 0.025 weight % alone), 212%; in assay [2] (Example 2, A 0.05 weight % alone), 92%; in assay [2] (Example 2, A 0.1 weight % alone), 68%. In addition, the microbial growth percentage in assay [2] (Example 2, A 0.2 weight % alone) was 29%; in assay [2] (Example 2, A 0.4 weight % alone), 17%; in assay [3] (A 0.0625 weight % alone) it was 114%; in assay [3] (A 0.125 weight % alone), 59%; in assay [3] (A 0.25 weight % alone), 65%; in assay [3] (A 0.5 weight % alone), 41%. Further, the microbial growth percentage in assay [3] (A 1 weight % alone) stood at 15%. The “% MIC of A alone” value in assay [1] (setting [4]) is recorded as 0.2%; in assay [2] (Example 1, weight %, first concentration giving growth <= 25%) it was 0.4%; in assay [2] (Example 2, weight %, first concentration giving growth <= 25%), 0.4%; in assay [3] (setting [4]), 1%.
Take `CCCCCCCCCCCCCCCCCCCCCC[N+](C)(C)C.[Cl-]` [B1, behenyltrimethylammonium chloride]: the microbial growth percentage is reported as 50% in assay [1] (B1 0.002 weight % alone); 1% in assay [1] (B1 0.00395 weight % alone); 186% in assay [2] (B1 0.049 weight % alone); 155% in assay [2] (B1 0.1 weight % alone); 78% in assay [2] (B1 0.2 weight % alone); 34% in assay [2] (B1 0.4 weight % alone). For the same molecule, the microbial growth percentage in assay [2] (B1 0.79 weight % alone) was 8%; in assay [3] (B1 0.001975 weight % alone), 68%; in assay [3] (B1 0.00395 weight % alone) it was 93%; in assay [3] (B1 0.0079 weight % alone), 36%; in assay [3] (B1 0.0158 weight % alone), 30%; in assay [3] (B1 0.0316 weight % alone), 1%. The results for the “% MIC of B1 alone” value in assay [1] (setting [4]), in assay [2] (setting [4]) and in assay [3] (setting [4]) were 0.00395%, 0.79% and 0.0316%, respectively.

The record behind these values is patent publication US20200229435A1, “ANTIMICROBIAL MIXTURE CONTAINING 4-(3-ETHOXY-4-HYDROXYPHENYL)BUTAN-2-ONE AND AN AMMONIUM COMPOUND, AND COSMETIC COMPOSITION CONTAINING SAME” (L'OREAL, priority 2017, published 2020).
